Key:
[1] = xn = mol fraction of the nth substance listed; settings: 101 kPa, Liquid
[2] = molar heat capacity at constant pressure; xn = mol fraction of the nth substance listed; settings: 101 kPa, Liquid

CCCC[n+]1cccc(C)c1.F[B-](F)(F)F [1-butyl-3-methylpyridinium tetrafluoroborate] + CCO
Settings	mass density, [1] [kg/m3]	molar heat capacity at constant pressure, [2] [J/K/mol]
293.15 K, x1 = 0.0073	800.5	113.6
293.15 K, x1 = 0.0126	807.8	115.2
293.15 K, x1 = 0.0231	821.5	119.1
293.15 K, x1 = 0.0512	855.1	129.4
293.15 K, x1 = 0.1003	904.1	146.4
293.15 K, x1 = 0.2569	1010.3	190.3
293.15 K, x1 = 0.3847	1065.4	223.7
293.15 K, x1 = 0.4841	1097.1	–
293.15 K, x1 = 0.5031	–	252.6
293.15 K, x1 = 0.5963	1124.9	276.9
293.15 K, x1 = 0.6919	–	301.6
293.15 K, x1 = 0.7107	1148	–
293.15 K, x1 = 0.7784	–	324.5
293.15 K, x1 = 0.7966	1162.2	–
293.15 K, x1 = 0.8711	–	350
293.15 K, x1 = 0.8923	–	355.9
293.15 K, x1 = 0.9514	1183.1	372.8
293.15 K, x1 = 1	1188.6	385.8
298.15 K, x1 = 0.0073	796.3	115.4
298.15 K, x1 = 0.0126	803.5	117.1
298.15 K, x1 = 0.0231	817.3	120.9
298.15 K, x1 = 0.0512	851	131
298.15 K, x1 = 0.1003	900.1	147.5
298.15 K, x1 = 0.2569	1006.4	191.3
298.15 K, x1 = 0.3847	1061.6	224.8
298.15 K, x1 = 0.4841	1093.4	–
298.15 K, x1 = 0.5031	–	254.2
298.15 K, x1 = 0.5963	1121.3	278.5
298.15 K, x1 = 0.6919	–	303.4
298.15 K, x1 = 0.7107	1144.5	–
298.15 K, x1 = 0.7784	–	326.6
298.15 K, x1 = 0.7966	1158.7	–
298.15 K, x1 = 0.8711	–	352.1
298.15 K, x1 = 0.8923	–	358.1
298.15 K, x1 = 0.9514	1179.6	375.1
298.15 K, x1 = 1	1185.2	387.7
303.15 K, x1 = 0.0073	792	117.3
303.15 K, x1 = 0.0126	799.3	119.1
303.15 K, x1 = 0.0231	813	122.7
303.15 K, x1 = 0.0512	846.8	132.6
303.15 K, x1 = 0.1003	896	148.7
303.15 K, x1 = 0.2569	1002.6	192.4
303.15 K, x1 = 0.3847	1057.9	226
303.15 K, x1 = 0.4841	1089.7	–
303.15 K, x1 = 0.5031	–	255.7
303.15 K, x1 = 0.5963	1117.7	280.1
303.15 K, x1 = 0.6919	–	305.3
303.15 K, x1 = 0.7107	1140.9	–
303.15 K, x1 = 0.7784	–	328.9
303.15 K, x1 = 0.7966	1155.2	–
303.15 K, x1 = 0.8711	–	354.4
303.15 K, x1 = 0.8923	–	360.5
303.15 K, x1 = 0.9514	1176.2	377.4
303.15 K, x1 = 1	1181.7	390.1
308.15 K, x1 = 0.0073	787.6	119.5
308.15 K, x1 = 0.0126	794.9	121.2
308.15 K, x1 = 0.0231	808.8	124.7
308.15 K, x1 = 0.0512	842.6	134.3
308.15 K, x1 = 0.1003	891.9	150.1
308.15 K, x1 = 0.2569	998.7	193.6
308.15 K, x1 = 0.3847	1054.2	227.2
308.15 K, x1 = 0.4841	1086.1	–
308.15 K, x1 = 0.5031	–	257.3
308.15 K, x1 = 0.5963	1114.2	281.8
308.15 K, x1 = 0.6919	–	307.3
308.15 K, x1 = 0.7107	1137.4	–
308.15 K, x1 = 0.7784	–	331.1
308.15 K, x1 = 0.7966	1151.7	–
308.15 K, x1 = 0.8711	–	356.9
308.15 K, x1 = 0.8923	–	363
308.15 K, x1 = 0.9514	1172.8	379.7
308.15 K, x1 = 1	1178.3	392.8
313.15 K, x1 = 0.0073	783.3	121.7
313.15 K, x1 = 0.0126	790.6	123.3
313.15 K, x1 = 0.0231	804.5	126.7
313.15 K, x1 = 0.0512	838.4	136
313.15 K, x1 = 0.1003	887.8	151.6
313.15 K, x1 = 0.2569	994.8	194.9
313.15 K, x1 = 0.3847	1050.4	228.5
313.15 K, x1 = 0.4841	1082.4	–
313.15 K, x1 = 0.5031	–	258.9
313.15 K, x1 = 0.5963	1110.6	283.5
313.15 K, x1 = 0.6919	–	309.4
313.15 K, x1 = 0.7107	1133.9	–
313.15 K, x1 = 0.7784	–	333.5
313.15 K, x1 = 0.7966	1148.3	–
313.15 K, x1 = 0.8711	–	359.5
313.15 K, x1 = 0.8923	–	365.7
313.15 K, x1 = 0.9514	1169.4	382
313.15 K, x1 = 1	1174.9	395.9
318.15 K, x1 = 0.0073	778.9	124.1
318.15 K, x1 = 0.0126	786.2	125.6
318.15 K, x1 = 0.0231	800.3	128.8
318.15 K, x1 = 0.0512	834.1	137.9
318.15 K, x1 = 0.1003	883.7	153.2
318.15 K, x1 = 0.2569	990.9	196.2
318.15 K, x1 = 0.3847	1046.7	229.8
318.15 K, x1 = 0.4841	1078.7	–
318.15 K, x1 = 0.5031	–	260.4
318.15 K, x1 = 0.5963	1107.1	285.3
318.15 K, x1 = 0.6919	–	311.5
318.15 K, x1 = 0.7107	1130.4	–
318.15 K, x1 = 0.7784	–	335.9
318.15 K, x1 = 0.7966	1144.8	–
318.15 K, x1 = 0.8711	–	362.2
318.15 K, x1 = 0.8923	–	368.5
318.15 K, x1 = 0.9514	1166	384.4
318.15 K, x1 = 1	1171.6	399.3

From the NIST ThermoML archive (doi:10.1021/je7002836)
